Measured values published in PubChem BioAssay AID2060511 (Molecular Pharmacology Branch, DTP, NCI, 2025).

Test system: 422866-222-R5-J1-PDC spheroids with HUVEC/MSC, viability
Assay: Anticancer human tumor 422866-222-R5-J1-PDC patient-derived pancreatic adenocarcinoma cell line growth inhibition [GQUAD]
Conditions: for IC50: curve of first compound; for viability, T/C: stronger effect = lower value
Summary of the method: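 Tumor cells were grown as complex spheroids with HUVEC endothelial cells and mesenchymal stem cells as stroma. G-quadruplex stabilizers were combined with targeted agents over half-log dilutions from near the clinical Cmax, or from 10 microM.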

[1] = second compound 0.0316 µM, first compound 0.000999 µM
[2] = second compound 0.0316 µM, first compound 0.00316 µM
[3] = second compound 0.0316 µM, first compound 0.00999 µM
[4] = second compound 0.0316 µM, first compound 0.0316 µM
[5] = second compound 0.0316 µM, first compound 0.0999 µM
[6] = second compound 0.0316 µM, first compound 0.316 µM
[7] = second compound 0.1 µM, first compound 0.000999 µM
[8] = second compound 0.1 µM, first compound 0.00316 µM
[9] = second compound 0.1 µM, first compound 0.00999 µM
[10] = second compound 0.1 µM, first compound 0.0316 µM
[11] = second compound 0.1 µM, first compound 0.0999 µM
[12] = second compound 0.1 µM, first compound 0.316 µM
[13] = second compound 0.316 µM, first compound 0.000999 µM
[14] = second compound 0.316 µM, first compound 0.00316 µM
[15] = second compound 0.316 µM, first compound 0.00999 µM
[16] = second compound 0.316 µM, first compound 0.0316 µM
[17] = second compound 0.316 µM, first compound 0.0999 µM
[18] = second compound 0.316 µM, first compound 0.316 µM
[19] = second compound 1 µM, first compound 0.000999 µM
[20] = second compound 1 µM, first compound 0.00316 µM
[21] = second compound 1 µM, first compound 0.00999 µM
[22] = second compound 1 µM, first compound 0.0316 µM
[23] = second compound 1 µM, first compound 0.0999 µM
[24] = second compound 1 µM, first compound 0.316 µM
[25] = second compound 3.16 µM, first compound 0.000999 µM
[26] = second compound 3.16 µM, first compound 0.00316 µM
[27] = second compound 3.16 µM, first compound 0.00999 µM
[28] = second compound 3.16 µM, first compound 0.0316 µM
[29] = second compound 3.16 µM, first compound 0.0999 µM
[30] = second compound 3.16 µM, first compound 0.316 µM
[31] = second compound 10 µM, first compound 0.000999 µM
[32] = second compound 10 µM, first compound 0.00316 µM
[33] = second compound 10 µM, first compound 0.00999 µM
[34] = second compound 10 µM, first compound 0.0316 µM
[35] = second compound 10 µM, first compound 0.0999 µM
[36] = second compound 10 µM, first compound 0.316 µM
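Also: spheroids exposed to compounds for seven days before reading.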
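For viability, T/C in this document: percent viability relative to DMSO vehicle control taken as 100%.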

CCc1c2c(nc3ccc(O)cc13)-c1cc3c(c(=O)n1C2)COC(=O)[C@]3(O)CC + Cc1cnc(CNC(=O)c2c(=O)c3ccc(N4CCCN(C)CC4)nc3n3c2sc2ccccc23)cn1 showed an IC50 (second compound 0.0316 µM) of 1.87 nM, an IC50 (second compound 0.1 µM) of 15.9 nM and an IC50 (second compound 0.316 µM) of 25.5 nM. It also gave an IC50 (second compound 1 µM) of 73.2 nM, an IC50 (second compound 3.16 µM) of 62.2 nM and an IC50 (second compound 10 µM) of 106 nM. The viability, T/C [1] was 56.2%, the viability, T/C [2] was 42.2% and the viability, T/C [3] was 44.1%. It also gave a viability, T/C [4] of 41.3%, a viability, T/C [5] of 37.7% and a viability, T/C [6] of 24.5%. For the same molecule, the viability, T/C [7] was 66.8%, the viability, T/C [8] was 59.2% and the viability, T/C [9] was 50.4%. For the same molecule, the viability, T/C [10] was 46.3%, the viability, T/C [11] was 44.9% and the viability, T/C [12] was 34.8%. The viability, T/C [13] was 75.4%, the viability, T/C [14] was 63.1% and the viability, T/C [15] was 56.4%. It also gave a viability, T/C [16] of 47.7%, a viability, T/C [17] of 46.6% and a viability, T/C [18] of 30.2%. The viability, T/C [19] was 73.4%, the viability, T/C [20] was 76% and the viability, T/C [21] was 59.6%. The viability, T/C [22] was 59.4%, the viability, T/C [23] was 49.3% and the viability, T/C [24] was 28.2%. For the same molecule, the viability, T/C [25] was 70.2%, the viability, T/C [26] was 77.4% and the viability, T/C [27] was 62.5%. For the same molecule, the viability, T/C [28] was 55.7%, the viability, T/C [29] was 46.5% and the viability, T/C [30] was 26.3%. The viability, T/C [31] was 72.5%, the viability, T/C [32] was 74.8% and the viability, T/C [33] was 68%. For the same molecule, the viability, T/C [34] was 60.2%, the viability, T/C [35] was 54.9% and the viability, T/C [36] was 22.1%.
Cn1ncnc1[C@H]1c2n[nH]c(=O)c3cc(F)cc(c23)N[C@@H]1c1ccc(F)cc1 + Cc1cnc(CNC(=O)c2c(=O)c3ccc(N4CCCN(C)CC4)nc3n3c2sc2ccccc23)cn1 was tested, and the IC50 (second compound 0.0316 µM) was over 316 nM, the IC50 (second compound 0.1 µM) was over 316 nM and the IC50 (second compound 0.316 µM) was over 316 nM. The IC50 (second compound 1 µM) was over 316 nM, the IC50 (second compound 3.16 µM) was over 316 nM and the IC50 (second compound 10 µM) was over 316 nM. It also gave a viability, T/C [1] of 94.9%, a viability, T/C [2] of 85% and a viability, T/C [3] of 93.8%. It also gave a viability, T/C [4] of 81.2%, a viability, T/C [5] of 70.9% and a viability, T/C [6] of 69.4%. The viability, T/C [7] was 89.1%, the viability, T/C [8] was 91.2% and the viability, T/C [9] was 81.1%. The viability, T/C [10] was 79.3%, the viability, T/C [11] was 78.2% and the viability, T/C [12] was 71.8%. For the same molecule, the viability, T/C [13] was 91.6%, the viability, T/C [14] was 78.6% and the viability, T/C [15] was 87.4%. It also gave a viability, T/C [16] of 84%, a viability, T/C [17] of 73.1% and a viability, T/C [18] of 83.9%. For the same molecule, the viability, T/C [19] was 75.8%, the viability, T/C [20] was 77.4% and the viability, T/C [21] was 80.7%. The viability, T/C [22] was 80.5%, the viability, T/C [23] was 88.1% and the viability, T/C [24] was 74.9%. The viability, T/C [25] was 86.3%, the viability, T/C [26] was 71.5% and the viability, T/C [27] was 82%. It also gave a viability, T/C [28] of 70.7%, a viability, T/C [29] of 78.4% and a viability, T/C [30] of 71%. The viability, T/C [31] was 75.2%, the viability, T/C [32] was 78.2% and the viability, T/C [33] was 77.3%. For the same molecule, the viability, T/C [34] was 77.9%, the viability, T/C [35] was 84% and the viability, T/C [36] was 66.9%.
For O=C(c1cc(Cc2n[nH]c(=O)c3ccccc23)ccc1F)N1CCN(C(=O)C2CC2)CC1 + Cc1cnc(CNC(=O)c2c(=O)c3ccc(N4CCCN(C)CC4)nc3n3c2sc2ccccc23)cn1, the IC50 (second compound 0.0316 µM) was over 10000 nM, the IC50 (second compound 0.1 µM) was over 10000 nM and the IC50 (second compound 0.316 µM) was over 10000 nM. For the same molecule, the IC50 (second compound 1 µM) was over 10000 nM, the IC50 (second compound 3.16 µM) was over 10000 nM and the IC50 (second compound 10 µM) was over 10000 nM. For the same molecule, the viability, T/C [4] was 108%, the viability, T/C (second compound 0.0316 µM, first compound 0.1 µM) was 89% and the viability, T/C [6] was 84.8%. For the same molecule, the viability, T/C (second compound 0.0316 µM, first compound 1 µM) was 83.4%, the viability, T/C (second compound 0.0316 µM, first compound 3.16 µM) was 80.5% and the viability, T/C (second compound 0.0316 µM, first compound 10 µM) was 65.2%. For the same molecule, the viability, T/C [10] was 91.9%, the viability, T/C (second compound 0.1 µM, first compound 0.1 µM) was 84.4% and the viability, T/C [12] was 80.5%. The viability, T/C (second compound 0.1 µM, first compound 1 µM) was 83.7%, the viability, T/C (second compound 0.1 µM, first compound 3.16 µM) was 80.2% and the viability, T/C (second compound 0.1 µM, first compound 10 µM) was 77.6%. It also gave a viability, T/C [16] of 74%, a viability, T/C (second compound 0.316 µM, first compound 0.1 µM) of 77.9% and a viability, T/C [18] of 78.8%. The viability, T/C (second compound 0.316 µM, first compound 1 µM) was 84%, the viability, T/C (second compound 0.316 µM, first compound 3.16 µM) was 85.2% and the viability, T/C (second compound 0.316 µM, first compound 10 µM) was 77.1%. It also gave a viability, T/C [22] of 76.2%, a viability, T/C (second compound 1 µM, first compound 0.1 µM) of 76.6% and a viability, T/C [24] of 84%. The viability, T/C (second compound 1 µM, first compound 1 µM) was 76.5%, the viability, T/C (second compound 1 µM, first compound 3.16 µM) was 80.3% and the viability, T/C (second compound 1 µM, first compound 10 µM) was 70.4%. For the same molecule, the viability, T/C [28] was 83.3%, the viability, T/C (second compound 3.16 µM, first compound 0.1 µM) was 73.7% and the viability, T/C [30] was 83.2%. For the same molecule, the viability, T/C (second compound 3.16 µM, first compound 1 µM) was 91.2%, the viability, T/C (second compound 3.16 µM, first compound 3.16 µM) was 83.6% and the viability, T/C (second compound 3.16 µM, first compound 10 µM) was 76.5%. For the same molecule, the viability, T/C [34] was 70%, the viability, T/C (second compound 10 µM, first compound 0.1 µM) was 79.4% and the viability, T/C [36] was 77.8%. For the same molecule, the viability, T/C (second compound 10 µM, first compound 1 µM) was 72.7%, the viability, T/C (second compound 10 µM, first compound 3.16 µM) was 89.5% and the viability, T/C (second compound 10 µM, first compound 10 µM) was 69.2%.
